Assay results from patent publication US20130296425A1, “PROPHYLACTIC OR THERAPEUTIC AGENT FOR A PERIPHERAL NERVE DISORDER INDUCED BY ANTI-CANCER AGENTS” (NAGOYA INDUSTRIAL SCIENCE RESEARCH INSTITUTE, priority 2011, published 2013).

Legend:
[1] = tested on: paclitaxel-induced peripheral nerve disorder rats; assay: Repeated intraperitoneal administration, hyperalgesia by paclitaxel (von Frey test); format: in vivo, rat
Experimental: With regard to male SD rats of six weeks age used as the experimental animals, their 50% reaction threshold values to the mechanical stimulus (the measuring method will be mentioned later) and body weights were measured and then the following seven groups each comprising eight rats was organized. • Normal control group • Onset control group • Prophylactic administration group with 0.25 mg/kg/day of a test drug • Prophylactic administration group with 0.50 mg/kg/day of a test drug • Therapeutic administration group with 0.25 mg/kg/day of a test drug • Therapeutic administration group with 0.50 mg/kg/day of a test drug • Therapeutic administration group with 30 mg/kg/day of gabapentin (positive control)
Taxol (registered trademark) injection 30 mg (manufactured by Bristol-Myers Squibb) containing 6 mg/mL of paclitaxel was used. To the rats of each of the above groups except the normal control group was intraperitoneally administered paclitaxel diluted to 2 mg/mL with saline in a dose of 2 mg/kg four times every other day whereupon the paclitaxel-induced peripheral nerve disorder rats were prepared. To the normal control group, an equivalent mixture of ethanol and Cremophor EL (registered trademark; manufactured by Sigma; a solvent for Taxisol (registered trademark) injection) diluted with saline to an extent of 3-fold was administered similarly.
To prophylactic administration groups of a test drug, the compound 4 in a dose of 0.25 mg/kg/day or 0.50 mg/kg/day was repeatedly administered intraperitoneally since immediately after initiation of administration of paclitaxel until 13 days thereafter. Meanwhile, to therapeutic administration groups of a test drug and to a therapeutic administration group of gabapentin, the compound 4 in a dose of 0.25 mg/kg/day or 0.50 mg/kg/day or gabapentin in a dose of 30 mg/kg/day, respectively was repeatedly administered intraperitoneally during the period of from 14 days to 42 days after initiation of the administration of paclitaxel.
The seven groups of rats of the above (1) were placed in a transparent acrylic cage with a wire-meshed floor and habituated for about three minutes and the 50% reaction threshold values to the mechanical stimulus of right hind limb were measured after 3, 7, 14, 21, 28, 35 and 42 days from initiation of the administration of paclitaxel. Incidentally, during the period of administration of a test drug, its values were measured after 24 hours from the last administration of a test drug.
The measurement was conducted using von Frey filaments (manufactured by North Coast Medical Inc.) in accordance with the methods of Chaplan, et al. (Journal of Neuroscience Methods, vol. 53, no. 1, pages 55 to 63, 1994) and Dixon, et al. (Annual Review of Pharmacology and Toxicology, vol. 20, pages 441 to 462, 1980). […] The case where the rat escaped at the instance of removing the filament was also called positive. When the positive reaction was noted, stimulus was conducted similarly using a filament of one rank weaker while, when no reaction was noted, stimulus was conducted similarly using a filament of one rank stronger and the point when the reaction changed from negative to positive or from positive to negative was called the first two reactions. […] A 50% reaction threshold value to the mechanical stimulus was measured using the reaction to the six stimuli in total and then (mean value) ± (standard error) for each group was calculated. […]

[2] = tested on: paclitaxel-induced peripheral nerve disorder rats; assay: Single intraperitoneal administration, hyperalgesia induced by paclitaxel (von Frey test); format: in vivo; details: Rattus norvegicus, ip, single i.p. dose 0.3 mg/kg, higher of the values after 1 hour and 5 hours, read-out: Recovery rate of 50% reaction threshold value (%)
Experimental: Male SD rats in six weeks age (one group comprised six rats) were used as experimental animals and the paclitaxel-induced peripheral nerve disorder rats were prepared in the same manner as in the above 1.[1](2). The test drug was administered intraperitoneally in a single dose so as to make it 0.3 mg/kg in any of the cases during the period of 18 to 25 days or 20 to 27 days after initiation of administration of paclitaxel.
A von Frey test was conducted in the same manner as in the above 1.[1](4) using the rats mentioned in the above (1) and each 50% reaction threshold value was measured. With regard to the higher 50% reaction threshold value between the 50% reaction threshold values after 1 hour and 5 hours from administration of a test drug, a recovery rate (%) of the 50% reaction threshold value was calculated.
Recovery rate (%) of 50% reaction threshold value={[(50% reaction threshold value after 1 hour or 5 hours from administration of test drug)−(50% reaction threshold value before administration of test drug)]÷[(Normal threshold value)−(50% reaction threshold value before administration of test drug)]}×100

CCCCCCC/C=C/C(=O)OCC [Compound 4, Trans-2-decenoic acid ethyl ester]
effect of suppressing the hyperalgesia after completion of the repeated administration ([1]; paclitaxel model, repeated i.p. 0.25 or 0.50 mg/kg/day): still continued | 50% reaction threshold values to the mechanical stimulus vs onset control group ([1]; prophylactic i.p. 0.5 mg/kg/day until 13 days, from 14 days to 28 days after initiation of paclitaxel, male SD rats): significantly high | 50% reaction threshold values to the mechanical stimulus vs onset control group ([1]; therapeutic i.p. 0.25 mg/kg/day (days 14-42), from 21 days to 35 days after paclitaxel): significantly high | 50% reaction threshold values to the mechanical stimulus vs onset control group ([1]; therapeutic i.p. 0.5 mg/kg/day (days 14-42), after 28 days from paclitaxel): significantly high | inhibition in vivo at 0.3 mg/kg [2]: 48.5%
